This note sets out measurements from patent publication EP0006061A1, “Medicinal compound consisting of a derivative of cyclopentyl aldehyde” (INSTITUT DE RECHERCHES CHIMIQUES ET BIOLOGIQUES APPLIQUEES …, priority 1978, dated 1979).

In brackets after ≈: the same amount, converted by molar mass.

The subject of one assay is cobayes. As to the kind of experiment: histamine aerosol bronchospasm (time to apnoea). Format: in vivo. To be noted: 0,1 mg/kg, aerosol for 10 min before histamine aerosol; controls 108 ± 18. The protocol:
(§1) Les essais pharmaceutiques qui ont été mis en oeuvre avec les produits des exemples 1 et 4, ont été résumés ci-après : • 1°/ essais avec l'exemple 1 • a/ activité bactériostatique L' α-(2-formyl-3-méthyl-cyclopentyl)-acétal- déhyde inhibe les bactéries Gram (+) et Gram (-). Les CMI (concentration minimale inhibitrice) sont les suivantes : 0,75 mg/ml sur Staphylococcus aureus Londres, 1,2 mg/ml sur Escherichia coli, et 1,5 mg/ml sur Proteus • b/ activité antispasmodique : Les DE-50 du produit de l'exemple 1 ont été déterminés • (i) in vitro sur iléon isolé de cobaye vis à vis de l'histamine : DE - 50 = 50 γ/ml; • (ii) in vivo sur l'animal vivant selon la méthode de KONZETT & ROESLLER : DE - 50 = 2,6 mg/kg par administration i.v. • c/ activité antianaphylactique : Des cobayes mâles sont sensibilisés par deux injections de 0,5 ml d'une solution d'albumine à 2 g/1, à deux jours d'intervalle. Quatre semaines aprës,le choc anaphylactique mortel est provoqué par injection i.v. de 0,2 ml d'une solution aqueuse d'ovalbumine à 2 g/1. Les produits à tester sont administrés 30 mn avant (administration i.p.) ou en même temps (administration i.v.) que l'injection provoquant ledit choc anaphylactique. Les résultats sont donnés dans le tableau I pour le produit de l'exemple 1 et la Prométhazine en tant que produit de référence : [formula] • 2°/ essais avec le produit de l'exemple 4 (constitué par un mélange de 87 % en poids d'isomère "cis-trans" et 13 % en poids d'isomère "trans-cis). • a/ activité bactériostatigue : Le produit de l'exemple 4 inhibe les bactéries Gram (+) et Gram (-). […]

For the next assay, the system named is l'animal vivant. As to the kind of experiment: antispasmodic activity in vivo, method of KONZETT & ROESLLER
The settings on record: iv, i.v. administration, read-out: DE - 50 (the source's name). As for the experimental part:
as §1, with “anaphylactique.” for “anaphylactique. Les résultats sont donnés dans le tableau I pour le produit de l'exemple 1 et la Prométhazine en tant que produit de référence : [formula] • 2°/ essais avec le produit de l'exemple 4 (constitué par un mélange de 87 % en poids d'isomère "cis-trans" et 13 % en poids d'isomère "trans-cis). • a/ activité bactériostatigue : Le produit de l'exemple 4 inhibe les bactéries Gram (+) et Gram (-).”

For another assay, the system named is Proteus. As to the kind of experiment: bacteriostatic activity (MIC). The assay is classed as cell-based. To be noted: read-out: CMI (concentration minimale inhibitrice). As for the experimental part:
(§2) Les essais pharmaceutiques qui ont été mis en oeuvre avec les produits des exemples 1 et 4, ont été résumés ci-après : • 1°/ essais avec l'exemple 1 • a/ activité bactériostatique L' α-(2-formyl-3-méthyl-cyclopentyl)-acétal- déhyde inhibe les bactéries Gram (+) et Gram (-). Les CMI (concentration minimale inhibitrice) sont les suivantes : 0,75 mg/ml sur Staphylococcus aureus Londres, 1,2 mg/ml sur Escherichia coli, et 1,5 mg/ml sur Proteus • b/ activité antispasmodique : Les DE-50 du produit de l'exemple 1 ont été déterminés • (i) in vitro sur iléon isolé de cobaye vis à vis de l'histamine : DE - 50 = 50 γ/ml; • (ii) in vivo sur l'animal vivant selon la méthode de KONZETT & ROESLLER : DE - 50 = 2,6 mg/kg par administration i.v. • c/ activité antianaphylactique : Des cobayes mâles sont sensibilisés par deux injections de 0,5 ml d'une solution d'albumine à 2 g/1, à deux jours d'intervalle. Quatre semaines aprës,le choc anaphylactique mortel est provoqué par injection i.v. de 0,2 ml d'une solution aqueuse d'ovalbumine à 2 g/1. Les produits à tester sont administrés 30 mn avant (administration i.p.) ou en même temps (administration i.v.) que l'injection provoquant ledit choc anaphylactique. Les résultats sont donnés dans le tableau I pour le produit de l'exemple 1 et la Prométhazine en tant que produit de référence : [formula] • 2°/ essais avec le produit de l'exemple 4 (constitué par un mélange de 87 % en poids d'isomère "cis-trans" et 13 % en poids d'isomère "trans-cis). • a/ activité bactériostatigue : Le produit de l'exemple 4 inhibe les bactéries Gram (+) et Gram (-). Ses CMI sont les suivantes : • 1,5 mg/m sur Staphylococcus aureus, Londres • 1 mg/ml sur Escherichia coli (souche 548) • 1,75 mg/ml sur Proteus vulgaris (souche 1557) • 2,5 mg/ml sur Klebsiella pneumoniae (souche 433), • 1 mg/ml sur Salmonella typhi murium (souche IP), • 1,5 mg/ml sur Staphylococcus aureus (souche 634), • 1,25 mg/ml sur Streptococcus (souche 1178) • 1,25 mg/ml sur Bacillus substilis, (les souches 548, 1557, 433, 634, et 1178 étant celles du catalogue de la collection du "Centre International de Distribution de Souches et d'Information sur les Types Microbiens" de . Lausanne, et la souche "IP" provenant de l'Institut Pasteur de Paris. • b/ activité bactéricide Le produit de l'exemple 4 détruit les bactéries Gram (+) et Gram (-). Ses CMB (concentration minimalebactéricide) déterminées sur milieu solide (quand moins de 0,01% de germes survivent) sont : • 1,75 mg/ml sur Staphylococcus aureus Londres • 1,5 mg/ml sur Escherichia coli (souche 548) • 2 mg/ml sur Proteus vulgaris (souche 1557) • 3 mg/ml sur Klebsiella pneumoniae (souche 433), • 1,25 mg/ml sur Salmonella typhi murium (souche I.P.) • 1,75 mg/ml sur Staphylococcus aureus (souche 634) • 2 mg/ml sur Streptococcus (souche 1178) • 2,5 mg/ml sur Bacillus substilis. • c/ activité bronchospatique Des cobayes mâles ou femelles [20 animaux (pesant 300-500 g) par dose et par produit à tester] sont exposés à un aérosol de l'exemple 4 (50 g/l en solution eau-éthanol) ou de Prométhazine (produit de référence) pendant 10 mn.

Another assay deals with Escherichia coli. As to the kind of experiment: bacteriostatic activity (MIC). The settings on record: read-out: CMI (concentration minimale inhibitrice). Format: cell-based. As for the experimental part:
as §2

In assay [1] the test system is Staphylococcus aureus Londres. As to the kind of experiment: bacteriostatic activity (MIC). The settings on record: read-out: CMI (concentration minimale inhibitrice). The assay is classed as cell-based. The protocol:
as §2

The next assay relates to iléon isolé de cobaye. As to the kind of experiment: antispasmodic activity in vitro against histamine on isolated ileum. To be noted: isolated guinea pig ileum, read-out: DE - 50 (the source's name). The assay is classed as cell-based. As for the experimental part:
as §1, with “anaphylactique.” for “anaphylactique. Les résultats sont donnés dans le tableau I pour le produit de l'exemple 1 et la Prométhazine en tant que produit de référence : [formula] • 2°/ essais avec le produit de l'exemple 4 (constitué par un mélange de 87 % en poids d'isomère "cis-trans" et 13 % en poids d'isomère "trans-cis). • a/ activité bactériostatigue : Le produit de l'exemple 4 inhibe les bactéries Gram (+) et Gram (-).”

In the case of `CC(CN1c2ccccc2Sc2ccccc21)N(C)C` (stereo not drawn) [Prométhazine, reference compound], in the assay with cobayes, the “Apparition de l'apnée (en secondes)” value was above 600 secondes.

For `CC1CCC(CC=O)C1C=O` (stereo not drawn) [Ex. 1, α-(2-formyl-3-méthyl-cyclopentyl)-acétaldéhyde], the ED50 with l'animal vivant worked out at 2.6 mg/kg. The MIC with Proteus came to 1500 µg/mL (≈ 9.73 mM); in the assay on Escherichia coli, 1200 µg/mL (≈ 7.78 mM); in assay [1], 750 µg/mL (≈ 4.86 mM). Further, in the assay on iléon isolé de cobaye, the EC50 turned out to be 50 µg/mL (≈ 0.324 mM).
